How the values were obtained:
[1] = test system: patient with diabetic neuropathy; assay: Diabetic neuropathy case (numerical rating scale); assay type: in vivo, human
Method: About 15 months ago, a diabetic neuropathy was clinically diagnosed in a patient who has been suffering from Type 2 Diabetes for 10 years. The patient was treated with 3×50 mg amitryptiline/day. At the time of the examination, the patient complained about pain conditions associated with burning sensations, shooting or stabbing pains and unpleasant formication, mainly in the feet and with increasing intensity during the night. On the numerical rating scale from 0=no pain to 10=maximum pain intensity, the patient reported mean pain values of 8-9 on average.
Under therapy with terguride (0.5 mg b.i.d.) the pain conditions and the general condition of the patient improved quickly (average pain value of 2-3 on the rating scale).

[2] = test system: patient with postherpetic neuralgia; assay: Postherpetic neuralgia case; assay type: in vivo, human; conditions: for pains under prior treatment: amitriptyline 3x50 mg/d, subsequently gabapentin 1500 mg daily, considerable deterioration within 10 days
Text: A patient of normal weight complained about a severe burning sensation and pains in the dermal area of the chest.

[3] = test system: patient with herniated disc, chronic pain; assay: Herniated disc chronic pain case, co-therapy with oxycodone
[4] = test system: patient suffering from fibromyalgia; assay: Application of proterguride in the case of fibromyalgia (single patient); assay type: in vivo, human; conditions: daily dose 0.5 mg
Method: A patient suffering from fibromyalgia was treated with proterguride.
The patient complained about stomach problems, stomach pains, pains in the chest as well as about swollen breasts and continuous exhaustion and tiredness. The discomforts had persisted for approx. one year. No pretreatment had been realized prior to the treatment with proterguride.
The patient was treated with a daily dose of 0.5 mg of proterguride which was administered in the morning and in the evening. The treatment was realized gradually.
The treatment was realized over a period of 33 weeks and the condition of the patient was examined weekly. After just 12 weeks, the condition had improved, particularly regarding the pains in the chest.

[5] = test system: patient with migrainous headaches; assay: Migraine prophylaxis case; assay type: in vivo, human
Method: The patient suffered from migrainous headaches with an average of 4-5 attacks per month, lasting on average between 3 and 8 hours. For acute pain treatment during an attack, a dosage of 50 mg of sumatriptan was administered orally. For the purpose of migraine prophylaxis, the patient was treated with topiramate in a dosage of 200 mg per day. […] Under administration of terguride (2×0.25 mg per day), the number of pain attacks decreased considerably to only one pain attack within 6 weeks with low pain intensity; also, the well-being of the patient improved within 2 weeks after the start of the therapy.

[6] = test system: patient suffering from migraine; assay: Application of terguride for the prophylaxis of migraine (single patient, diary); assay type: in vivo, human; conditions: daily dose 2 mg
Method: A patient, suffering from migraine on average four times a month, was treated with terguride. The patient was treated with a daily dose of 2 mg terguride which was administered in the morning and in the evening in single doses of 1 mg. The treatment was realized gradually. […] The patient was treated over a period of 24 weeks. The frequency, duration and severity of the migraine attacks were recorded by means of a diary. Within 4 weeks following the start of the treatment, a reduction of 40% of the frequency of migraine attacks could be shown, as well as a reduction of the attack duration from cumulative 12 days before the therapy to 8 days under terguride. The consumption of pain medication under therapy with terguride was reduced by 46%. […] The patient reported an improvement of […] general condition.

[7] = test system: patient suffering from fibromyalgia; assay: Application of terguride in the case of fibromyalgia (single patient); assay type: in vivo, human
Method: A patient suffering from fibromyalgia was treated with terguride. The patient complained about chronic pain in the extremities as well as about stomach pains and continuous exhaustion and tiredness. The discomforts had persisted for several months. No pretreatment had been realized prior to the treatment with terguride. The patient was treated with a daily dose of 3 mg of terguride which was administered in the morning and in the evening in single doses of 1.5 mg. The treatment was realized gradually. […] The treatment was realized over a period of 25 weeks and the condition of the patient was examined weekly.

[8] = test system: patient suffering from mastalgia and stomach pains due to premenstrual syndrome; assay: Application of terguride in the case of mastalgia/premenstrual syndrome (single patient); assay type: in vivo, human
Method: A patient suffering from mastalgia and stomach pains due to premenstrual syndrome was treated with terguride. […] The therapy started in the middle of the cycle. Twice a day, a tablet containing 0.5 mg terguride was administered to the patient over a period of 3 months. The pain severity was observed by means of a visual analogue scale. During the therapy, the pains in the chest and stomach area decreased and the patient was able to renounce on the administration of additional pain medication.

[9] = test system: tumor patient with bone pains from bone metastases; assay: Tumor associated pain case; assay type: in vivo, human; conditions: 0.5 mg bid
Method: A tumor patient suffering from a pancreatic carcinoma complained about bone pains resulting from the development of bone metastases. The patient was treated with ibandronate. Additionally, the treatment was realized with ibuprofen, acetaminophen and desipramine. […] After the start of the therapy with terguride (0.5 mg bid) the patient's pain conditions were reduced and the well-being improved continuously.

Question: With CN(C)CCC=C1c2ccccc2CCc2ccccc21 [amitriptyline, reference compound] as the compound, how does the “mean pain values on numerical rating scale (0=no pain to 10=maximum pain intensity)” value ([1]; at examination, patient treated with 3x50 mg/day, before terguride) read?
Answer: Its value is 8-9.

Question: What about the “pains under prior treatment” value [2] of the same compound?
Answer: The value was “only to a short-term improvement”.

Question: NCC1(CC(=O)O)CCCCC1 [gabapentin, reference compound] was tested. Which “pains under prior treatment” value [2] did it give?
Answer: The value was “only to a short-term improvement”.

Question: Which pain intensity ([3]; oxycodone alone, 2x10 mg increased to 2x40 mg per day) does the source give for COc1ccc2c3c1O[C@H]1C(=O)CC[C@@]4(O)[C@@H](C2)N(C)CC[C@]314 [oxycodone, reference compound] here?
Answer: Its pain intensity is “considerably reduced”.

Question: And the constipation complaints ([3]; oxycodone alone, longer treatment, required dose reduction to 2x20 mg/day)?
Answer: Its constipation complaints is “the more complaints occurred due to constipation”.

Question: Which “condition, particularly pains in the chest” value ([4]; after 12 weeks) does the source give for CCCN1C[C@@H](NC(=O)N(CC)CC)C[C@@H]2c3cccc4[nH]cc(c34)C[C@H]21 [proterguride] here?
Answer: The value was “improved”.

Question: What about the swelling of breasts ([4]; after 12 weeks) of the same compound?
Answer: The swelling of breasts was “reduction of the swelling”.

Question: And the “chronic tiredness and exhaustion and stomach pains” value ([4]; after 20 weeks)?
Answer: The value was “largely disappeared”.

Question: And the “overall condition of the patient” value ([4]; after 30 weeks)?
Answer: The value was “in the same condition as before the onset of the disease”.

Question: Which side effects ([5]; terguride 2x0.25 mg per day) does the source give for CCN(CC)C(=O)N[C@H]1C[C@@H]2c3cccc4[nH]cc(c34)C[C@H]2N(C)C1 [terguride] here?
Answer: The side effects was “No side effects were observed”.

Question: What about the “time to improvement of well-being after start of therapy” value ([5]; terguride 2x0.25 mg per day) of the same compound?
Answer: The value was at most 2 weeks.

Question: And the “number of pain attacks within 6 weeks” value ([5]; terguride 2x0.25 mg per day, before: 4-5 attacks per month, low pain intensity)?
Answer: The value was “one”.

Question: And the “migraine presentation after discontinuation (treatment-free interval)” value ([5]; terguride discontinued)?
Answer: Its value is “the migraine presentation returned”.

Question: What about the side effects ([1]; 0.5 mg b.i.d.) of the same compound?
Answer: The side effects was “No side effects”.

Question: And the “loss of efficacy under continuous treatment” value ([1]; 0.5 mg b.i.d., continuous treatment)?
Answer: Its value is “No signs of an loss of efficacy”.

Question: What about the “average pain value on numerical rating scale (0=no pain to 10=maximum pain intensity)” value ([1]; under terguride 0.5 mg b.i.d.) of the same compound?
Answer: The value was 2-3.

Question: And the side effects ([2]; 0.5 mg t.i.d.)?
Answer: Its side effects is “No side effects were observed”.

Question: What about the “pain on gradual dose reduction (treatment-free interval)” value ([2]; after 3 months, daily dose gradually reduced) of the same compound?
Answer: The value was “the pain increased quickly”.

Question: What about the pain presentation ([2]; terguride 0.5 mg t.i.d.) of the same compound?
Answer: Its pain presentation is “improved in a fast and continuous manner”.

Question: And the side effects ([6]; 24 weeks)?
Answer: The side effects was “No side effects”.

Question: What about the “attack duration (cumulative)” value ([6]; under terguride, versus 12 days before the therapy) of the same compound?
Answer: Its value is 8 days.

Question: And the “reduction of consumption of pain medication” value ([6]; under therapy)?
Answer: Its value is 46%.

Question: What about the “reduction of the frequency of migraine attacks” value ([6]; within 4 weeks following start of treatment) of the same compound?
Answer: Its value is 40%.

Question: What about the “condition, in particular pains in the extremities and stomach pains (visual analog scale)” value ([7]; daily dose 3 mg (2 x 1.5 mg), after 10 weeks) of the same compound?
Answer: The value was “visibly improved”.

Question: What about the “chronic conditions of tiredness and exhaustion” value ([7]; daily dose 3 mg, after 17 weeks) of the same compound?
Answer: Its value is “nearly impossible to detect”.

Question: And the “efficacy under chronic therapy” value ([3]; chronic therapy)?
Answer: The value was “remained efficient”.

Question: What about the pain ([3]; co-therapy terguride 2x0.5 mg/day with oxycodone 2x20 mg/day) of the same compound?
Answer: The pain was “almost completely pain-free”.

Question: What about the “general condition and joy of life” value ([8]; 0.5 mg twice a day, 3 months) of the same compound?
Answer: Its value is “considerably improved”.

Question: What about the “pains in the chest and stomach area (visual analogue scale)” value ([8]; 0.5 mg twice a day, 3 months) of the same compound?
Answer: The value was “decreased”.

Question: And the side effects ([8]; 0.5 mg twice a day, 3 months)?
Answer: Its side effects is “No side effects were observed”.

Question: What about the “symptoms during the following months under therapy” value ([8]; continued therapy) of the same compound?
Answer: The value was “remained symptom-free”.

Question: And the pain conditions [9]?
Answer: The pain conditions was “reduced”.

Question: What about the side effects [9] of the same compound?
Answer: Its side effects is “No side effects were observed”.

Question: CC1(C)O[C@@H]2[C@@H](CO[C@@]3(COS(N)(=O)=O)OC(C)(C)O[C@@H]23)O1 [topiramate, reference compound] was tested. Which migraine activity ([5]; topiramate 200 mg per day) did it give?
Answer: Its migraine activity is “No reduction of the migraine activity”.

Question: What about the “adverse effects leading to discontinuation” value ([5]; topiramate 200 mg per day, after 3 months) of the same compound?
Answer: Its value is “nausea and weight loss”.

Reference: US20070225312A1, “TERGURIDE / PROTERGURIDE FOR THE TREATMENT OF CHRONIC PAIN” (ERGONEX PHARMA GMBH, priority 2006, published 2007)
